Columns and labels:
Conditions in all cases: 72 h
Caco-2 [1] = assay: cell viability relative to DMSO; higher = less toxic
Calu-3 [2] = assay: as above
HepG2 [3] = assay: as above
U2OS [4] = assay: as above
Vero E6 [5] = assay: as above
Caco-2 [6] = assay: relative viability EC50 (midpoint between 100% and the lowest measured viability); higher = less toxic
Calu-3 [7] = assay: as above
HepG2 [8] = assay: as above
U2OS [9] = assay: as above
Vero E6 [10] = assay: as above
Caco-2 [11] = assay: drug sensitivity score (DSS) for viability; higher = more toxic; extreme values may be limits of the assay
Calu-3 [12] = assay: as above
HepG2 [13] = assay: as above
U2OS [14] = assay: as above
Vero E6 [15] = assay: as above

Row | Compound | cell viability (Caco-2 [1]; 1 nM) [%] | cell viability (Caco-2 [1]; 10 nM) [%] | cell viability (Caco-2 [1]; 100 nM) [%] | cell viability (Caco-2 [1]; 1000 nM) [%] | cell viability (Caco-2 [1]; 10000 nM) [%] | cell viability (Calu-3 [2]; 1 nM) [%] | cell viability (Calu-3 [2]; 10 nM) [%] | cell viability (Calu-3 [2]; 100 nM) [%] | cell viability (Calu-3 [2]; 1000 nM) [%] | cell viability (Calu-3 [2]; 10000 nM) [%] | cell viability (HepG2 [3]; 1 nM) [%] | cell viability (HepG2 [3]; 10 nM) [%] | cell viability (HepG2 [3]; 100 nM) [%] | cell viability (HepG2 [3]; 1000 nM) [%] | cell viability (HepG2 [3]; 10000 nM) [%] | cell viability (U2OS [4]; 1 nM) [%] | cell viability (U2OS [4]; 10 nM) [%] | cell viability (U2OS [4]; 100 nM) [%] | cell viability (U2OS [4]; 1000 nM) [%] | cell viability (U2OS [4]; 10000 nM) [%] | cell viability (Vero E6 [5]; 1 nM) [%] | cell viability (Vero E6 [5]; 10 nM) [%] | cell viability (Vero E6 [5]; 100 nM) [%] | cell viability (Vero E6 [5]; 1000 nM) [%] | cell viability (Vero E6 [5]; 10000 nM) [%] | relative viability EC50 (Caco-2 [6]) [µM] | relative viability EC50 (Calu-3 [7]) [µM] | relative viability EC50 (HepG2 [8]) [µM] | relative viability EC50 (U2OS [9]) [µM] | relative viability EC50 (Vero E6 [10]) [µM] | drug sensitivity score (Caco-2 [11]) | drug sensitivity score (Calu-3 [12]) | drug sensitivity score (HepG2 [13]) | drug sensitivity score (U2OS [14]) | drug sensitivity score (Vero E6 [15])
1 | CCCCC(CC)CNC(=N)NC(=N)NCCCCCCNC(=N)NC(=N)NCC(CC)CCCC (stereo unspecified) [alexidine] | 94.6 | 99.3 | 105 | 101 | 1.2 | 97.1 | 105 | 104 | 103 | 105 | 106 | 93.2 | 105 | 50.7 | 6 | 93.6 | 91.8 | 99.3 | 91 | 3.9 | 108 | 106 | 93.3 | 109 | 32.8 | 3.22 | > 10 | 0.964 | 2.39 | 3.73 | 5.4 | 0 | 11.2 | 6.8 | 3.1
2 | Cn1cc(-c2ccc3nnc(Sc4ccc5ncccc5c4)n3n2)cn1 [SGX523] | 92.5 | 98.6 | 103 | 107 | 100 | 89 | 97.2 | 102 | 96.5 | 100 | 96.2 | 95.2 | 92.5 | 97.2 | 103 | 99 | 98.6 | 101 | 93.4 | 103 | 94.8 | 101 | 94.4 | 98 | 107 | > 10 | > 10 | > 10 | > 10 | > 10 | 0 | 0 | 0 | 0 | 0
3 | CN[C@@H]1[C@@H](O[C@H]2O[C@H](CO)[C@@H](N)[C@H](O)[C@H]2O)O[C@H]2C[C@@H](N)[C@@H](O[C@H]3[C@H](O)[C@@H](O)[C@H](N)C[C@@H]3N)O[C@@H]2[C@@H]1O [apramycin] | 98 | 89 | 104 | 104 | 92.9 | 97.8 | 99.6 | 100 | 91.5 | 74.8 | 106 | 98.1 | 107 | 99.3 | 97.5 | 105 | 100 | 92.8 | 104 | 99.9 | 102 | 95.3 | 93.2 | 99.9 | 102 | > 10 | – | > 10 | > 10 | > 10 | 0 | 2.1 | 0 | 0 | 0
4 | CN1C(=O)CCS(=O)(=O)C1c1ccc(Cl)cc1 (stereo unspecified) [chlormezanone] | 94.4 | 96.2 | 101 | 95.7 | 99.6 | 96 | 102 | 96.6 | 97.6 | 102 | 96.5 | 97.7 | 96.7 | 103 | 103 | 101 | 97.1 | 102 | 95.7 | 103 | 103 | 106 | 104 | 103 | 97.8 | > 10 | > 10 | > 10 | > 10 | > 10 | 0 | 0 | 0 | 0 | 0
5 | Nc1nc(/C(=C/CC(=O)O)C(=O)N[C@@H]2C(=O)N3C(C(=O)O)=CCS[C@H]23)cs1 [ceftibuten] | 102 | 102 | 106 | 94.9 | 104 | 103 | 99.9 | 102 | 94.6 | 106 | 86.3 | 105 | 99.3 | 95.3 | 91 | 101 | 95 | 100 | 97.8 | 106 | 99.5 | 104 | 96.1 | 104 | 97.8 | > 10 | > 10 | > 10 | > 10 | > 10 | 0 | 0 | 0 | 0 | 0
6 | CC(C)(Oc1ccc(Cl)cc1)C(=O)N1CSCC1C(=O)O (stereo unspecified) [timofibrate] | 87.1 | 99.6 | 95.7 | 98.9 | 103 | – | – | – | – | – | 99 | 102 | 108 | 96.8 | 113 | 95.5 | 105 | 98.2 | 103 | 104 | 99.5 | 104 | 96 | 94.8 | 105 | > 10 | – | > 10 | > 10 | > 10 | 0 | – | 0 | 0 | 0
7 | COc1ccc(C2CC(c3c(O)cc(C)oc3=O)=NCCS2)c(OC)c1 (stereo unspecified) | 103 | 98.7 | 99.5 | 64.4 | 47.4 | 105 | 105 | 97.7 | 80.4 | 57 | 94.9 | 106 | 92.8 | 44.4 | 36.6 | 102 | 97 | 93.9 | 69.8 | 33.2 | 100 | 105 | 101 | 35.9 | 31 | 0.73 | – | 0.328 | 1.1 | 0.391 | 7.1 | 4.4 | 11.2 | 7.1 | 11.8

Source: the supplement of paper PMC13380429
